From patent US20160291027A1, “METHODS FOR […] ABILITY OF A Z[…] COMPOUND TO TREAT CANCER” (Eisai R&D Management Co., Ltd., priority 2007, published 2016)
pIC50: −log10 of the molar value.

Assays:
[1] = test system: LOX human melanoma xenografts; assay: Immunohistochemistry of LOX xenografts after single dosing; assay type: in vivo, mice; conditions: single 40 mg/kg i.v.
Protocol: LOX human melanoma cells, which carry the V600E BRAF mutation, were originally obtained from the DCTD Tumor Repository (Frederick, Md.). The cells were grown in monolayer cultures in DCTD-recommended growth media at 37° C. in a 5% CO2 humidified incubator. On the day of subcutaneous (s.c.) injections of the cells, growth medium was removed, flasks were washed with PBS, and cells were collected with trypsinization. The cells were washed and collected by centrifugation, and then resuspended in ice-cold PBS at a concentration of 1×10^7 cells/mL. The cells (1×10^6 cells) were inoculated s.c. in female athymic NU/NU mice near the right axillary area using a 27-gauge needle with a volume of 0.1 mL, and allowed to grow. Compound 106 was administered intravenously (i.v.) on a single dosing at the dosage level of 40 mg/kg with a volume of injection 0.1 mL per 10 g body weight. Then, the mice were euthanized at different time points including 0, 1, 2, 4, 8, 12, 24, 48, 72 h after dosing. The tumor tissue was dissected and fixed with 10% formalin for immunohistochemistry.
For immunohistochemical detection of phospho-ERK 1/2, rabbit mAb 20011 was used at a final concentration of […] (Cell Signaling, Cat. No. 4376). This mAb detects endogenous levels of p44 and p42 MAP Kinase (ERK1 and ERK2) when dually phosphorylated at Thr202 and Tyr204 of ERK1 (Thr185 and […] of ERK2), and singly phosphorylated at Thr202. Conditions were essentially as described in IHC Procedure (2), with incubation overnight (18 hr) at 4° C. and EDTA retrieval buffer. Secondary reagent was goat anti-rabbit antibody, conjugated to alkaline phosphatase.
For immunohistochemical detection of phospho-RB, anti-phospho-Retinoblastoma (pSer780) antibody (Sigma, Cat. No. R6275) was used (Table 10). Conditions were as described in IHC Procedure (1), with incubation for one hour at room temperature and EDTA retrieval buffer. Secondary reagent was anti-rabbit antibody, conjugated to horseradish peroxidase.

[2] = test system: IL-6 secretion by LOX human melanoma cells; assay: IL-6 secretion by LOX melanoma cells (ELISA); assay type: cell-based; conditions: 24 hours
Protocol: Compound 106 (5.0 mg) was weighed and dissolved in 100% anhydrous DMSO (dimethyl sulfoxide, Sigma-Aldrich®, St. Louis, Mo.) to produce a 10 mmol/L stock solution of 3.89 mg/mL. Aliquots of the 10 mmol/L stock solution were stored at −80° C. Then, on each day of an experiment, an aliquot of the stock solution was thawed and diluted 1:10 by adding RPMI-1640 culture medium to obtain a 1 mmol/L solution. Four serial 1:10 dilutions were made from 1 mmol/L working solution by adding 10% DMSO in RPMI-1640 culture medium to obtain 4 additional working solutions. Each of these working stock solutions was further diluted with culture media to obtain diluted working solutions ranging from 1 nmol/L to 10,000 nmol/L. Five mL of each of these diluted working solutions was added to each dish.
LOX human melanoma cells were originally obtained from the DCTD Tumor Repository (Frederick, Md.). The cells were grown in monolayer cultures in RPMI-1640 growth media containing 10% fetal bovine serum (FBS) at 37° C. in a 5% CO2 humidified incubator.
LOX human melanoma cells were plated at 1×10^6 cells into 100 mm dishes. After 48 hours, cells were washed three times with phosphate buffered saline (PBS) and were cultured with RPMI-1640 medium containing 0.1% FBS for another 24 hours. After removing the cell culture medium, fresh RPMI-1640 medium containing Compound 106 (1, 10, 100, 1000, or 10,000 nmol/L) was added to each culture dish and incubated for 24 hours (see Table 5). The control received 0.1% DMSO in RPMI-1640 culture medium alone to measure spontaneous secretion of IL-6 and IL-8. Three separate experiments were performed in duplicate to calculate the mean±SEM.
After a 24 hour incubation with Compound 106 or 0.1% DMSO, 5 mL of cell culture supernatant was collected. Any particulate material was removed by centrifugation. All samples were stored in the −80° C. freezer until analysis. Human IL-6 or IL-8 was determined using an ELISA kit (Human IL-8 ELISA Set, Catalog No. 555244, BD Biosciences, San Diego, Calif. and Human IL-6 ELISA Set, Catalog No. 555220, BD Biosciences, San Diego, Calif.) with the assay procedure provided by the kits. Absorbance was read on a VERSAMAX™ (Molecular Devices, now part of MDS Analytical Technologies, Sunnyvale Calif.).
After removing the cell culture supernatant, 1.0 mL of trypsin was added to the cells for 3 minutes, and then 4 mL of media containing 10% FBS was added for cell counting. Cells were counted using a hematocytometer (Bright Line Counting Chamber, Hausser Scientific, Horsham, Pa.) with a depth of 0.1 mm. The total number of cells was calculated as follows:
Total number of cells in 5 mL=C×10^4/mL×5 mL(C: actual cell count in 1 mm^2)
The level of IL-6 or IL-8 was determined as ng/1×10^6 cells. Inhibition of IL-6 or IL-8 secretion by Compound 106 was expressed as percent of control using the formula below:
Percent of control=(value of treatment−mean value of blank)/(value of control−mean value of blank)×100
The software, Graphpad Prism® (ver. 4, San Diego, Calif.) was used for calculation of mean IC50 values.

SMILES: CCNc1cc(O)c2c(c1)/C=C/C[C@H](O)[C@H](O)C(=O)/C=C\[C@@H](C)[C@H](C)OC2=O [Compound 106]
- Time for phospho-ERK staining to recover to baseline levels [1]: ≤ 24 h
- Phospho-ERK staining (IHC) ([1]; 8 hour time-point): essentially no observable staining
- Ki67 staining (IHC) ([1]; between 24 and 48 hours, through 72 hours): suppressed to below detection
- phospho-pRB level (IHC) ([1]; between 48 and 72 hours): suppressed to below detection
- IL-6 (ng/million cells) Mean ([2]; 1 nmol/L): 9.9 ng/million cells
- IL-6 (pg/million cells) Experiment 1 ([2]; 1 nmol/L): 5890 pg/million cells
- IL-6 (pg/million cells) Experiment 2 ([2]; 1 nmol/L): 13741 pg/million cells
- IL-6 (pg/million cells) Experiment 3 ([2]; 1 nmol/L): 10140 pg/million cells
- Protein level of IL-6, Percent (%) of control Experiment 1 ([2]; 1 nmol/L): 46.1%
- Protein level of IL-6, Percent (%) of control Experiment 2 ([2]; 1 nmol/L): 53.6%
- Protein level of IL-6, Percent (%) of control Experiment 3 ([2]; 1 nmol/L): 115.0%
- IL-6 (ng/million cells) Mean ([2]; 10 nmol/L): 8.7 ng/million cells
- IL-6 (pg/million cells) Experiment 1 ([2]; 10 nmol/L): 3253 pg/million cells
- IL-6 (pg/million cells) Experiment 2 ([2]; 10 nmol/L): 12105 pg/million cells
- IL-6 (pg/million cells) Experiment 3 ([2]; 10 nmol/L): 10745 pg/million cells
- Protein level of IL-6, Percent (%) of control Experiment 1 ([2]; 10 nmol/L): 21.5%
- Protein level of IL-6, Percent (%) of control Experiment 2 ([2]; 10 nmol/L): 47.1%
- Protein level of IL-6, Percent (%) of control Experiment 3 ([2]; 10 nmol/L): 121.3%
- IL-6 (ng/million cells) Mean ([2]; 100 nmol/L): 0.5 ng/million cells
- IL-6 (pg/million cells) Experiment 1 ([2]; 100 nmol/L): 347 pg/million cells
- IL-6 (pg/million cells) Experiment 2 ([2]; 100 nmol/L): 643 pg/million cells
- IL-6 (pg/million cells) Experiment 3 ([2]; 100 nmol/L): 485 pg/million cells
- Protein level of IL-6, Percent (%) of control Experiment 1 ([2]; 100 nmol/L): 2.9%
- Protein level of IL-6, Percent (%) of control Experiment 2 ([2]; 100 nmol/L): 2.5%
- Protein level of IL-6, Percent (%) of control Experiment 3 ([2]; 100 nmol/L): 5.5%
- IL-6 (ng/million cells) Mean ([2]; 1,000 nmol/L): 0.6 ng/million cells
- IL-6 (pg/million cells) Experiment 1 ([2]; 1,000 nmol/L): 547 pg/million cells
- IL-6 (pg/million cells) Experiment 2 ([2]; 1,000 nmol/L): 986 pg/million cells
- IL-6 (pg/million cells) Experiment 3 ([2]; 1,000 nmol/L): 257 pg/million cells
- Protein level of IL-6, Percent (%) of control Experiment 1 ([2]; 1,000 nmol/L): 4.6%
- Protein level of IL-6, Percent (%) of control Experiment 2 ([2]; 1,000 nmol/L): 3.8%
- Protein level of IL-6, Percent (%) of control Experiment 3 ([2]; 1,000 nmol/L): 2.9%
- IL-6 (ng/million cells) Mean ([2]; 10,000 nmol/L): 0.2 ng/million cells
- IL-6 (pg/million cells) Experiment 1 ([2]; 10,000 nmol/L): 165 pg/million cells
- IL-6 (pg/million cells) Experiment 2 ([2]; 10,000 nmol/L): 337 pg/million cells
- IL-6 (pg/million cells) Experiment 3 ([2]; 10,000 nmol/L): 132 pg/million cells
- Protein level of IL-6, Percent (%) of control Experiment 1 ([2]; 10,000 nmol/L): 1.3%
- Protein level of IL-6, Percent (%) of control Experiment 2 ([2]; 10,000 nmol/L): 1.3%
- Protein level of IL-6, Percent (%) of control Experiment 3 ([2]; 10,000 nmol/L): 1.6%
- activity at 0.001 µM ([2]; Homo sapiens, LOX, 1 nmol/L, read-out: Protein level of IL-6, Mean % of control): 72.2%
- activity at 0.01 µM ([2]; Homo sapiens, LOX, 10 nmol/L, read-out: Protein level of IL-6, Mean % of control): 65%
- activity at 0.1 µM ([2]; Homo sapiens, LOX, 100 nmol/L, read-out: Protein level of IL-6, Mean % of control): 3.6%
- activity at 1 µM ([2]; Homo sapiens, LOX, 1,000 nmol/L, read-out: Protein level of IL-6, Mean % of control): 3.8%
- activity at 10 µM ([2]; Homo sapiens, LOX, 10,000 nmol/L, read-out: Protein level of IL-6, Mean % of control): 1.4%
- pIC50 ([2]; Homo sapiens, LOX melanoma cell line, read-out: mean calculated IC50, IL-6 protein level): 7.66
